Key:
[1] = biological target: T1, human MR (Homo sapiens, UniProt P08235); assay: Mineralocorticoid Receptor Binding Assay ([3H]-aldosterone); settings: [3H]-aldosterone binding, human MR expressed in Sf9 cells; read-out: MR Ki
T1 construct: The full length human MR gene is cloned from a human kidney or human brain cDNA library; His tag from the pAcHLT vector (own knowledge); made in house; host or cells: Sf9 insect cells (baculovirus, pAcHLT transfer vector)
T1 sequence (P08235 1-984): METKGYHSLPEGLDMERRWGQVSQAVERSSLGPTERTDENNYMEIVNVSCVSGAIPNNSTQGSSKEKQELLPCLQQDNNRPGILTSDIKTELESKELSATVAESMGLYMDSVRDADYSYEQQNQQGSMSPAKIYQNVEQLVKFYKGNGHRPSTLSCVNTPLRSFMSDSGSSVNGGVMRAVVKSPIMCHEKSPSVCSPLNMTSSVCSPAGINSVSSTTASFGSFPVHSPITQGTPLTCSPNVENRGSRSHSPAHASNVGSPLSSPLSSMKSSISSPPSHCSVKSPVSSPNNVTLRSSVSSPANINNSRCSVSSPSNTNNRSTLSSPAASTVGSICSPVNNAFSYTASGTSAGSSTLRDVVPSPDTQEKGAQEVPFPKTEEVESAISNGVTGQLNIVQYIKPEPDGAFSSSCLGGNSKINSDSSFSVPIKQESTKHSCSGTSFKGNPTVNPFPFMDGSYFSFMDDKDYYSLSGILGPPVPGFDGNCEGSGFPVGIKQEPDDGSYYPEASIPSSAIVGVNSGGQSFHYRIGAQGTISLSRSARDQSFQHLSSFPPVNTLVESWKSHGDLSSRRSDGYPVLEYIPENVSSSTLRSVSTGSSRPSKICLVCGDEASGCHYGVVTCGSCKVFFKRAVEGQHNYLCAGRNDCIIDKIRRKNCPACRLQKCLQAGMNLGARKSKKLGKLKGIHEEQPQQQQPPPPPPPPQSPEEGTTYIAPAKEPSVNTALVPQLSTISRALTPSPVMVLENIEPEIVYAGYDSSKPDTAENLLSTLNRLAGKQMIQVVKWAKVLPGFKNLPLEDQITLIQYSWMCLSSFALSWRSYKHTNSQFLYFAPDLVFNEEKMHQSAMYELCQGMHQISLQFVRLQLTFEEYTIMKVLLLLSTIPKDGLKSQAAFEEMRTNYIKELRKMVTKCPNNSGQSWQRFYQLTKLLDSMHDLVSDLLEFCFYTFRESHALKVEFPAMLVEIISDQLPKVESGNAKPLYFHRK
Method in brief: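 Receptor source: freeze-thaw lysate of baculovirus-infected Sf9 cells carrying full-length human MR, 20-25 μg protein. Incubation ~16 h at 4 °C with shaking, pH 7.5 buffer containing 30 mM sodium molybdate and 10% glycerol.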

[2] = biological target: T2, glucocorticoid receptor (Homo sapiens, UniProt P04150); assay: Glucocorticoid Receptor Binding Assay ([3H]-dexamethasone, A549 cell extract); settings: [3H]-dexamethasone binding, read-out: GR Ki
T2 construct: containing 50-200 ug of A549 cell extract and 1.86 nM [^3H]-dexamethasone; host or cells: A549 human lung epithelial cells (sonicated cell extract)
T2 sequence (P04150 1-777): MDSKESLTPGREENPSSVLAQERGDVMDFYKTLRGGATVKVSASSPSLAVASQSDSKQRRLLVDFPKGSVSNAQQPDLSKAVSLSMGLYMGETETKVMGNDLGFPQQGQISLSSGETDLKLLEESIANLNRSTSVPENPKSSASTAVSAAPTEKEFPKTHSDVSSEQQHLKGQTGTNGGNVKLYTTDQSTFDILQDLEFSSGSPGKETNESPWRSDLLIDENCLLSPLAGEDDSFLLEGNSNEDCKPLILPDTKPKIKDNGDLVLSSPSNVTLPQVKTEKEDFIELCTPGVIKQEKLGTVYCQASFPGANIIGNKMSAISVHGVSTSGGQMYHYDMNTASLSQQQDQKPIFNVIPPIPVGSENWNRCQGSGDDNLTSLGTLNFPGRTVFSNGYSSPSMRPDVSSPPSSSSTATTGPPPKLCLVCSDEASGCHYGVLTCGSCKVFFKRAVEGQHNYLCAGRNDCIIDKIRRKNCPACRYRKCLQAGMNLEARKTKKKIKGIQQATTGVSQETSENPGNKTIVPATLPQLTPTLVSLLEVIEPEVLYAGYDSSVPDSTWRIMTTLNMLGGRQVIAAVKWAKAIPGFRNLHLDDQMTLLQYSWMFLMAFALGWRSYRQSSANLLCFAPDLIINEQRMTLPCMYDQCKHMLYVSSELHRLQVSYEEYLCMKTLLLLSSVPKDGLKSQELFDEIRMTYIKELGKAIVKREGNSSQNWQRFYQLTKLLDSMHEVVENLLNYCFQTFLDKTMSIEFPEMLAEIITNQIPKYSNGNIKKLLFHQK
Method in brief: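 Displacement of [3H]-dexamethasone (1.86 nM) from glucocorticoid receptor in sonicated A549 lung epithelial cell extracts, 16 h at 4 °C, pH 7.2 molybdate-containing buffer. Bound radioactivity was scintillation-counted after charcoal/dextran stripping of free ligand.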

Work on `CS(=O)(=O)Nc1cccc(/C=C2/c3ccccc3COc3ccccc32)c1` [Example 268, N-[3-(6H-Dibenzo[b,e]oxepin-11-ylidenemethyl)-phenyl]-methanesulfonamide] yielded a Ki [1] of under 500 nM and a Ki [2] of under 500 nM.
`COc1cccc2c1OCc1ccccc1/C2=C\c1cccc(NS(C)(=O)=O)c1` [Example 271, N-[3-(4-Methoxy-6H-dibenzo[b,e]oxepin-11-ylidenemethyl)-phenyl]-methanesulfonamide] gave a Ki [1] of under 500 nM and a Ki [2] of under 500 nM.
In the case of `CS(=O)(=O)Nc1cccc(/C=C2/c3ccccc3OCc3c(Cl)cccc32)c1` [Example 274, N-[3-(7-Chloro-6H-dibenzo[b,e]oxepin-11-ylidenemethyl)-phenyl]-methanesulfonamide], the Ki [1] is reported as under 500 nM and the Ki [2] is reported as under 500 nM.
Work on `CS(=O)(=O)c1cccc(C=C2c3ccccc3CCc3ccccc32)c1` [Example 279, 5-(3-Methanesulfonyl-benzylidene)-10,11-dihydro-5H-dibenzo[a,d]cycloheptene] yielded a Ki [1] of under 500 nM and a Ki [2] of under 10000 nM.
With `N#CNc1cccc(C=C2c3ccccc3CCc3ccccc32)c1` [Example 280] the Ki [1] was under 500 nM and the Ki [2] was under 1000 nM.
For `O=S(=O)(Nc1cccc(C=C2c3ccccc3CCc3ccccc32)c1)C(F)(F)F` [Example 281], the Ki [1] was under 500 nM and the Ki [2] was under 10000 nM.
Work on `Cc1ccccc1CC1c2ccccc2CCc2ccccc21` [Example 282] yielded a Ki [1] of under 500 nM and a Ki [2] of under 500 nM.
`FC(F)(F)c1ccccc1CC1c2ccccc2CCc2ccccc21` [Example 283] was tested, and the Ki [1] was under 500 nM and the Ki [2] was under 10000 nM.
With `Cc1ccc(CC2c3ccccc3CCc3ccccc32)cc1NS(C)(=O)=O` [Example 286] the Ki [1] was under 500 nM and the Ki [2] was under 10000 nM.
`Nc1ccccc1CC1c2ccccc2CCc2ccccc21` [Example 287] showed a Ki [1] of under 500 nM and a Ki [2] of under 500 nM.
Work on `O=S(=O)(Nc1cccc(C=C2c3ccccc3CCc3cc(Cl)ccc32)c1)c1ccc(Cl)cc1` [Example 290] yielded a Ki [1] of under 500 nM and a Ki [2] of under 1000 nM.
For `O=S(=O)(Nc1cccc(C=C2c3ccccc3CCc3cc(Cl)ccc32)c1)c1ccc(F)cc1` [Example 291], the Ki [1] was under 500 nM and the Ki [2] was under 500 nM.
With `Cc1ccc(S(=O)(=O)Nc2cccc(C=C3c4ccccc4CCc4cc(Cl)ccc43)c2)cc1` [Example 292] the Ki [1] was under 500 nM and the Ki [2] was under 500 nM.
`COc1ccc(S(=O)(=O)Nc2cccc(C=C3c4ccccc4CCc4cc(Cl)ccc43)c2)cc1` [Example 293] showed a Ki [1] of under 500 nM and a Ki [2] of under 500 nM.
`O=S(=O)(Nc1cccc(C=C2c3ccccc3CCc3cc(Cl)ccc32)c1)c1ccc(Cl)c(Cl)c1` [Example 294] showed a Ki [1] of under 500 nM and a Ki [2] of under 10000 nM.
In the case of `O=S(=O)(Nc1cccc(C=C2c3ccccc3CCc3cc(Cl)ccc32)c1)c1cccs1` [Example 295], the Ki [1] is reported as under 500 nM and the Ki [2] is reported as under 500 nM.
In the case of `Cn1cnc(S(=O)(=O)Nc2cccc(C=C3c4ccccc4CCc4cc(Cl)ccc43)c2)c1` [Example 296], the Ki [1] is reported as under 500 nM and the Ki [2] is reported as under 10000 nM.
In the case of `CC(=O)Nc1nc(C)c(S(=O)(=O)Nc2cccc(C=C3c4ccccc4CCc4cc(Cl)ccc43)c2)s1` [Example 297], the Ki [1] is reported as under 500 nM and the Ki [2] is reported as under 10000 nM.
In the case of `O=C(CO)c1cccc(C=C2c3ccccc3CCc3cc(Cl)ccc32)c1` [Example 298], the Ki [1] is reported as under 500 nM and the Ki [2] is reported as under 10000 nM.
Work on `COCC(=O)Nc1cccc(C=C2c3ccccc3CCc3cc(Cl)ccc32)c1` [Example 299] yielded a Ki [1] of under 500 nM and a Ki [2] of under 1000 nM.
`O=C(CO)Nc1cccc(C=C2c3ccccc3CCc3cc(Cl)ccc32)c1` [Example 300] gave a Ki [1] of under 500 nM and a Ki [2] of under 1000 nM.
`Cc1ccc2c(c1)C(=Cc1cccc(NS(C)(=O)=O)c1)c1ccccc1CC2` [Example 301] gave a Ki [1] of under 500 nM and a Ki [2] of under 500 nM.
In the case of `Cc1ccc2c(c1)CCc1ccccc1C2=Cc1cccc(NS(C)(=O)=O)c1` [Example 302], the Ki [1] is reported as under 500 nM and the Ki [2] is reported as under 500 nM.
With `Cc1cccc2c1CCc1ccccc1C2=Cc1cccc(NS(C)(=O)=O)c1` [Example 303] the Ki [1] was under 500 nM and the Ki [2] was under 500 nM.
Compound `Cc1cccc2c1C(=Cc1cccc(NS(C)(=O)=O)c1)c1ccccc1CC2` [Example 304] has a Ki [1] of under 500 nM and a Ki [2] of under 500 nM.
`Cc1ccc2c(c1)C(=Cc1ccc(NS(C)(=O)=O)cc1)c1ccccc1CC2` [Example 305] was tested, and the Ki [1] was under 500 nM and the Ki [2] was under 1000 nM.
`CS(=O)(=O)Nc1cccc(/C=C2/c3ccccc3CCc3cc(-c4ccccc4)ccc32)c1` [Example 306] showed a Ki [1] of under 500 nM and a Ki [2] of under 1000 nM.
For `Cc1cccc2c1CCc1ccccc1C2=Cc1ccc(NS(C)(=O)=O)cc1` [Example 307], the Ki [1] was under 500 nM and the Ki [2] was under 1000 nM.
`CS(=O)(=O)Nc1cccc(/C=C2\c3ccccc3CCc3cc(-c4ccccc4)ccc32)c1` [Example 308] was tested, and the Ki [1] was under 500 nM and the Ki [2] was under 10000 nM.
`Cc1ccc2c(c1)CCc1ccccc1C2=Cc1ccc(NS(C)(=O)=O)cc1` [Example 309] gave a Ki [1] of under 500 nM and a Ki [2] of under 1000 nM.
In the case of `Cc1cccc2c1C(=Cc1ccc(NS(C)(=O)=O)cc1)c1ccccc1CC2` [Example 310], the Ki [1] is reported as under 500 nM and the Ki [2] is reported as under 1000 nM.
`Cc1cccc2c1CCc1ccccc1/C2=C/c1cccc(NS(C)(=O)=O)c1` [Example 311] gave a Ki [1] of under 500 nM and a Ki [2] of under 500 nM.
`Cc1cccc2c1CCc1ccccc1/C2=C\c1cccc(NS(C)(=O)=O)c1` [Example 312] gave a Ki [1] of under 500 nM and a Ki [2] of under 500 nM.
For `Cc1cccc2c1/C(=C\c1cccc(NS(C)(=O)=O)c1)c1ccccc1CC2` [Example 314], the Ki [1] was under 500 nM and the Ki [2] was under 500 nM.
With `Cc1cccc2c1CCc1ccccc1/C2=C/c1ccc(NS(C)(=O)=O)cc1` [Example 315] the Ki [1] was under 500 nM and the Ki [2] was under 10000 nM.
Compound `Cc1cccc2c1CCc1ccccc1/C2=C\c1ccc(NS(C)(=O)=O)cc1` [Example 316] has a Ki [1] of under 500 nM and a Ki [2] of under 500 nM.
`Cc1ccc2c(c1)CCc1ccccc1/C2=C/c1ccc(NS(C)(=O)=O)cc1` [Example 317] gave a Ki [1] of under 500 nM and a Ki [2] of under 10000 nM.
`Cc1ccc2c(c1)CCc1ccccc1/C2=C\c1ccc(NS(C)(=O)=O)cc1` [Example 318] gave a Ki [1] of under 500 nM and a Ki [2] of under 1000 nM.
Work on `CSc1cccc2c1CCc1ccccc1C2=Cc1cccc(NS(C)(=O)=O)c1` [Example 319] yielded a Ki [1] of under 500 nM and a Ki [2] of under 500 nM.
`CSc1ccc2c(c1)C(=Cc1cccc(NS(C)(=O)=O)c1)c1ccccc1CC2` [Example 320] was tested, and the Ki [1] was under 500 nM and the Ki [2] was under 500 nM.
`CS(=O)(=O)Nc1cccc(C=C2c3ccccc3CCc3ccc(S(C)(=O)=O)cc32)c1` [Example 321] showed a Ki [1] of under 500 nM and a Ki [2] of under 500 nM.
With `CSc1ccc2c(c1)/C(=C\c1cccc(NS(C)(=O)=O)c1)c1ccccc1CC2` [Example 322] the Ki [1] was under 500 nM and the Ki [2] was under 500 nM.
For `CS(=O)(=O)Nc1cccc(/C=C2/c3ccccc3CCc3ccc(S(C)(=O)=O)cc32)c1` [Example 323], the Ki [1] was under 500 nM and the Ki [2] was under 500 nM.
For `Cc1ccc2c(c1)CCc1cc(C)ccc1C2=Cc1cccc(NS(C)(=O)=O)c1` [Example 325], the Ki [1] was under 500 nM and the Ki [2] was under 500 nM.

Reference: US20060063759A1, “Tricyclic steroid hormone nuclear receptor modulators” (priority 2002, published 2006)
